From patent publication US9181281B2, “Prodrugs of neuraminidase inhibitors” (priority 2008, dated 2015)
Like-named read-outs stand apart in the source and are kept apart here.

Key:
[1] = 10 mg-eq/kg oral gavage to rats; cited from earlier work
[2] = cited from earlier work; for bioavailability: species not stated
hPEPT1 [3] = biological target: T1, hPEPT1 (Homo sapiens, UniProt P46059); assay: [3H]Gly-Sar uptake inhibition in HeLa/hPEPT1 cells; format: cell-based; set-up: expressed in transfected cells; host or cells: HeLa
T1 sequence (P46059 1-708): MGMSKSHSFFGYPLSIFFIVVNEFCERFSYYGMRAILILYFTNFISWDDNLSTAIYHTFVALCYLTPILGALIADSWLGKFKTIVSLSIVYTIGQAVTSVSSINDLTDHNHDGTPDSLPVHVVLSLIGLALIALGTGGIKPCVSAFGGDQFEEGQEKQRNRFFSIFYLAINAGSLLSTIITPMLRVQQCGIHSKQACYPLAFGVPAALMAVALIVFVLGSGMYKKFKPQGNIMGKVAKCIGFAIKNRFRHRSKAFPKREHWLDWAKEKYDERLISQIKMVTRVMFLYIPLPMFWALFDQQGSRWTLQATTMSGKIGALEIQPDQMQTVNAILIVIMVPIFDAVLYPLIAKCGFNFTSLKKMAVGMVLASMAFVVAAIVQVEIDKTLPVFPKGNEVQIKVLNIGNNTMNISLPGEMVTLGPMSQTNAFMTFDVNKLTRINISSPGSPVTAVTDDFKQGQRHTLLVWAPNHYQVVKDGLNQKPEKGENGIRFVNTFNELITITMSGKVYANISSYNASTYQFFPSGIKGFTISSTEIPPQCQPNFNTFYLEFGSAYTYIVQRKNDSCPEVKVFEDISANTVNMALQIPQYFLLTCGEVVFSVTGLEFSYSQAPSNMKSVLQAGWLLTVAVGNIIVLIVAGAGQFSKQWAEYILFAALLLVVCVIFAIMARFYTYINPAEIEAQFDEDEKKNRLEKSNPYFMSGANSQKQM

[4] = Permeability in rat perfused jejunum; format: in vivo
From the text: Improved permeability of prodrugs Zan-Val, GOC-Val, and 3-HPG-Ile compared to the parent compounds is observed in the rat perfused jejunum, as shown in FIG. 3.

hPEPT1 [5] = biological target: T1, hPEPT1; assay: [3H]Gly-Sar uptake inhibition in Caco-2 cells; format: cell-based
Method: The affinity of zanamivir, GOC, 3-hydroxyphenylglycine (3-HPG) and prodrugs thereof for particular transporters is evaluated using [^3H]Gly-Sar uptake inhibition in Caco-2 cells and in HeLa/hPEPT1 cells. Valacyclovir, a known substrate of hPEPT1, was used as positive control (Table 1). […] The valyl and isoleucyl prodrugs of zanamivir, GOC, and 3-HPG have higher affinity for hPEPT1 than the parent compounds.

[6] = AUC and bioavailability of GOC and GOC prodrugs in fasted rats (IV or duodenal injection); conditions: for AUC0-4 hr, GOC / AUC0-4 hr, Total AUC / % F / AUC0-4 hr, Prodrug: rat
Method: 10 mg-eq/kg of GOC or GOC prodrugs were directly injected to duodenum segment of fasted rats. […] Appropriate volume of blood samples was taken from the jugular vein at the predetermined time points.
Rat plasma samples were analyzed for GOC prodrug and GOC using LCMSMS following solid phase extraction sampling preparation. A reverse phase solid-phase cartridge (HLB, 30 mg/1 cc, Waters) was activated with 1.0 mL of methanol and equilibrated with 1.0 mL of water. A 250 ul aliquot of rat plasma was acidified with 250 uL of 1% TFA solution and loaded on to the cartridges. After washing with 1.0 ml water, the compounds are eluted with 1 ml of 2% acetic acid solution. The eluted solvent was evaporated under nitrogen stream in TurboVap and the residue was reconstituted in 250 ul of mobile phase.
Samples were analyzed using a LC/MS/MS system (Micromass Quattro II, HP 1100). The HPLC system consisted of a HP1100 system (Hewlett Packard, CA). 10 ul of sample was separated with a C18 column (2.1×150 mm) using a mobile phase of 10-30% acetonitrile:water containing 0.1% formic acid. Quattro II triple quadrupole mass spectrometer (Micromass, Beverly, Mass.) interfaced with the HPLC via electropray source was used for the mass analysis and detection. The data acquisition software was MassLynx (version 4.0). Calibration curves were constructed by weighted (1/x) least square regression of peak area versus concentrations of the calibration standards.
Bioavailability calculation is based on the AUC0-4 hrs.

[7] = tested on: influenza virus neuraminidase; conditions: read-out: IC50, influenza virus neuraminidase; cited from earlier work
VACVase = biological target: T2, VACVase (Homo sapiens, UniProt Q86WA6); assay: Hydrolysis of prodrugs by VACVase (Michaelis-Menten kinetics)
T2 sequence (Q86WA6 38-291): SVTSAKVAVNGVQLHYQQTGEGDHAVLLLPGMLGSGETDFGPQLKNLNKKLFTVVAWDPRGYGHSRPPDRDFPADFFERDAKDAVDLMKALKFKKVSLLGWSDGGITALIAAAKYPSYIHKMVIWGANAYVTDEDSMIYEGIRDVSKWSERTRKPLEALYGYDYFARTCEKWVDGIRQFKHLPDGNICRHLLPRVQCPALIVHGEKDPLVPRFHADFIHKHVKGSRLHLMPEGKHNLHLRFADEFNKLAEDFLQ

[8] = Hydrolysis of prodrugs in buffer over pH 1.2-7.4 at 37° C.; format: physicochemical; conditions: pH range 1.2-7.4, 37° C.
Method: The hydrolysis of prodrugs of the present invention in buffer was studied over the pH range 1.2-7.4 at 37° C.

[9] = substrate: CC(C)[C@H](N)C(=O)OCCOCn1cnc2c(=O)[nH]c(N)nc21; assay: purified protein, by the assay type; conditions: 25.0 °C
[10] = HeLa/hPEPT1 cells, mean ± sd, n = 2, read-out: IC50 of [3H]Gly-Sar uptake inhibition
[11] = duodenal administration (OGI) 10 mg-eq/kg

CCC(CC)O[C@@H]1C=C(C(=O)O)C[C@H](N)[C@H]1NC(C)=O [GS4071, oseltamivir carboxylate]
Cmax [1]: 30 ng/mL | bioavailability [2]: ~4.0%

CCOC(=O)C1=C[C@@H](OC(CC)CC)[C@H](NC(C)=O)[C@@H](NC(=N)N)C1 [GS4109]
Cmax [1]: 30 ng/mL | bioavailability [2]: approximately 2%

CCOC(=O)C1=C[C@@H](OC(CC)CC)[C@H](NC(C)=O)[C@@H](N)C1 [GS4104, oseltamivir]
% F [1]: 35% | Cmax [1]: 47 ng/mL | oral bioavailability ([2]; in rats, mice, dogs and ferrets): 11-73%

CC(=O)N[C@H]1[C@H]([C@H](O)[C@H](O)CO)OC(C(=O)O)=C[C@@H]1N=C(N)N [Zanamivir, zanamivir]
affinity for the transporter (hPEPT1 [3]; HeLa/hPEPT1 cells): poor affinity | IC50 (hPEPT1 [3]; [10]): > 30 mM | jejunal permeability [4]: very low, essentially zero permeability | % F [1]: 3.7% | Cmax [1]: 60 ng/mL | absolute oral availability ([2]; in vivo, po): ~2% | affinity for the transporter (hPEPT1 [5]): poor affinity

CC[C@H](C)[C@H](N)C(=O)OC(C)OC(=O)C1=C[C@H](NC(=N)N)[C@@H](NC(C)=O)[C@H]([C@H](O)[C@H](O)CO)O1 (stereo partly shown) [Zan-Ile, zanamivir ethoxyisoleucine ester]
IC50 (hPEPT1 [3]; [10]): 3.04 ± 0.8 mM

CCC(CC)O[C@@H]1C=C(C(=O)O)C[C@H](NC(=N)N)[C@H]1NC(C)=O [GOC, guanidino oseltamivir carboxylate]
affinity for the transporter (hPEPT1 [3]; HeLa/hPEPT1 cells): poor affinity | IC50 (hPEPT1 [3]; [10]): 6.6 ± 3.9 mM | jejunal permeability [4]: very low, essentially zero permeability | % F [1]: 4.0% | Cmax [1]: 60 ng/mL | AUC0-4 hr, GOC ([6]; IV injection 1 mg/kg): 385 ± 167 (ng/mL) · hrs | AUC0-4 hr, Total AUC ([6]; IV injection 1 mg/kg): 385 ± 167 (ng/mL) · hrs | % F ([6]; IV injection 1 mg/kg (reference)): 100.0% | AUC0-4 hr, GOC [6, 11]: 265 ± 91 (ng/mL) · hrs | AUC0-4 hr, Total AUC [6, 11]: 265 ± 91 (ng/mL) · hrs | % F ([6]; duodenal administration (OGI) 10 mg-eq/kg, based on AUC0-4 hrs): 4.6% | bioavailability [2]: ~4.0% | IC50 [7]: 0.9 nM | affinity for the transporter (hPEPT1 [5]): poor affinity

CC(=O)N[C@H]1[C@H]([C@H](O)[C@H](O)CO)OC(C(=O)OC(C)OC(=O)[C@@H](N)C(C)C)=C[C@@H]1NC(=N)N (stereo partly shown) [Zan-Val, valine ethoxyester of zanamivir]
IC50 (hPEPT1 [3]; [10]): 1.95 ± 0.19 mM | jejunal permeability [4]: high permeability, higher than that of metoprolol | Kcat (VACVase; hydrolysis by VACVase, 25° C.): 21.2 s⁻¹ | Km (VACVase; hydrolysis by VACVase, 25° C.): 1.55 mM | Vmax (VACVase; hydrolysis by VACVase, 25° C.): 47.2 nmol/min/μg of VACVase | hydrolysis behaviour in buffer [8]: pH dependent hydrolysis

CC(C)[C@H](N)C(=O)OCCOCn1cnc2c(=O)[nH]c(N)nc21 [Valcyclovir, Valacyclovir]
IC50 (hPEPT1 [3]): 1.88 ± 0.51 mM | Vmax (VACVase): 280 nmol/min/μg of VACVase

CCC(CC)O[C@@H]1C=C(C(=O)OCCNC(=O)[C@@H](N)C(C)C)C[C@H](NC(=N)N)[C@H]1NC(C)=O [GOC GlyOH L-Val]
species found in plasma after dosing ([6]; rat plasma, OGI 10 mg-eq/kg): Only a trace amount of GOC is detected in the plasma | AUC0-4 hr, Prodrug [6, 11]: 386 ± 406 (ng/mL) · hrs | AUC0-4 hr, Total AUC [6, 11]: 401 ± 419 (ng/mL) · hrs

CCC(CC)[C@H](NC(C)=O)[C@@H]1[C@H](O)[C@@H](C(=O)O)C[C@H]1N=C(N)N [peramivir]
oral bioavailability ([2]; peramivir, clinical trials context): ≤ 3%

CCC(CC)O[C@@H]1C=C(C(=O)OCC(C)OC(=O)[C@@H](N)C(C)C)C[C@H](NC(=N)N)[C@H]1NC(C)=O (stereo partly drawn) [GOC PG L-Val]
AUC0-4 hr, Prodrug [6, 11]: 17 ± 12 (ng/mL) · hrs | AUC0-4 hr, Total AUC [6, 11]: 116 ± 61 (ng/mL) · hrs

CCC(CC)O[C@@H]1C=C(C(=O)OC(C)OC(=O)[C@@H](N)C(C)C)C[C@H](NC(=N)N)[C@H]1NC(C)=O (stereo partly shown) [GOC-Val, valine ethoxyester of guanidine oseltamivir]
IC50 (hPEPT1 [3]; [10]): 0.19 ± 0.01 mM | jejunal permeability [4]: high permeability, higher than that of metoprolol | Kcat (VACVase; hydrolysis by VACVase, 25° C.): 8.7 s⁻¹ | Km (VACVase; hydrolysis by VACVase, 25° C.): 2.37 mM | Vmax (VACVase; hydrolysis by VACVase, 25° C.): 19.4 nmol/min/μg of VACVase | hydrolysis behaviour in buffer [8]: pH dependent hydrolysis

NC(C(=O)O)c1cccc(O)c1 (stereo not shown) [3-HPG, 3-hydroxyphenylglycine]
affinity for the transporter (hPEPT1 [3]; HeLa/hPEPT1 cells): poor affinity | IC50 (hPEPT1 [3]; [10]): > 5 mM | jejunal permeability [4]: very low, essentially zero permeability | affinity for the transporter (hPEPT1 [5]): poor affinity

CCC(CC)O[C@@H]1C=C(C(=O)OC(C)OC(=O)[C@@H](N)[C@@H](C)CC)C[C@H](NC(=N)N)[C@H]1NC(C)=O (stereo partly shown) [GOC-Ile, isoleucine ethoxyester of guanidine oseltamivir]
IC50 (hPEPT1 [3]; [10]): 0.45 ± 0.18 mM | hydrolysis behaviour in buffer [8]: pH dependent hydrolysis

B1: VACVase (Homo sapiens) (protein)
chain: T2 sequence (Q86WA6 38-291)
Km [9]: 0.59 mM | kcat [9]: 126 s⁻¹ | kcat/Km [9]: 213000 M⁻¹ s⁻¹
